# Laboratory results published in patent US7732493B2, “2-substituted D-homo-estra-1,3,5(10)-trienes as inhibitors of 17β-hydroxy steroid dehydrogenase type 1” (Bayer Schering Pharma Aktiengesellschaft, priority 2004, dated 2010).
# Biological target: T1, human 17β-hydroxy steroid dehydrogenase type 1 (17β-HSD1) (Homo sapiens, UniProt P14061)
# T1 construct: made in house; host or cells: E. coli
# T1 sequence (P14061 1-328): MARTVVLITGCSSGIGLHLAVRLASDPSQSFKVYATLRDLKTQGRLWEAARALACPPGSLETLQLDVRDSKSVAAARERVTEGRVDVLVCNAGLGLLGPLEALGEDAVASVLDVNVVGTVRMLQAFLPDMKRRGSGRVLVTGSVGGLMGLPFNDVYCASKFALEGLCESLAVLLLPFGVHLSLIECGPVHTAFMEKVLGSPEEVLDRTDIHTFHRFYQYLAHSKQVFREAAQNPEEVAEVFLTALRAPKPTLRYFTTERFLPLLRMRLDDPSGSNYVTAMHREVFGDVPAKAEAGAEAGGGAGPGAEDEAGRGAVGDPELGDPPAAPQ
# Assay: Inhibition of the activity of human 17β-hydroxy steroid dehydrogenase type 1 (3H-labeled substrate conversion, HPLC)
# Assay type: biochemical
# Settings: human enzyme over-expressed in E. coli, bacterial suspension, 37° C., double determination; read-out: 17βHSD1 IC50
# From the text: The test process is well described in the literature [Adamski, J., Sierralta, W. D., Jungblut, P. W., Acta Endocrinol (Copenh.) 121(2) (1989), 161-7] and is depicted below.
# Human 17β-hydroxy steroid dehydrogenases (17β-HSDs) are over-expressed in E. coli bacteria as His-Tag proteins or as GST-fusion proteins. The suspensions of the bacterial pellets in isotonic common salt solution are used for the determination of enzyme activities of the 17β-HSDs or for the study of their influence by potential inhibitors (estrogen derivatives).
# The measurements are made in double determination and, if necessary, at various concentrations of potential inhibitors (e.g., in determining the IC50 values). In addition to the target enzyme 17β-HSD1, other steroid-metabolizing enzymes are included in the test to study cross reactivities of estrogen derivatives.
# The incubation of the samples is carried out at 37° C. in a water bath while being shaken, such that in the control (without substances to be tested), a conversion of about 30% is achieved.
# The separation of radiolabeled substrate and product is then carried out, after extraction with 1 ml of reversed phase-(RP-18)-cartridges, by means of HPLC on an RP18 column with acetonitrile:water 1:1 (v/v) as a mobile phase. The radioactivity is detected with the aid of a flow-scintillation counter.
# The evaluation of the substrate conversion with and without substances to be tested is performed by the integration of the substrate and product peaks. The conversion of the control is normalized to 100% conversion.
row,IC50 [nM],Compound
1,52,"2-Bromo-17a-oxo-17a-homoestra-1,3,5(10)-trien-3-ol [Example 3]"
2,52,"2-Iodo-17a-oxo-17a-homoestra-1,3,5(10)-trien-3-ol [Example 4]"
3,85,"COc1cc2c(cc1O)CC[C@@H]1[C@@H]2CC[C@]2(C)C(=O)CCC[C@@H]12 [Example 1, 2-Methoxy-17a-oxo-17a-homoestra-1,3,5(10)-trien-3-ol]"
4,24,"C=CCc1cc2c(cc1O)CC[C@@H]1[C@@H]2CC[C@]2(C)C(=O)CCC[C@@H]12 [Example 7, 2-Allyl-17a-oxo-17a-homoestra-1,3,5(10)-trien-3-ol]"
